Results as given in patent US20220363709A1, “ECTONU[…] METHODS OF USE THEREOF” (priority 2019, published 2022).

molecular target: T1, recombinant CD73 (Homo sapiens, UniProt P21589); experiment: Assay 1: Inhibition of the CD73 Enzyme In Vitro; assay type: biochemical; conditions: soluble recombinant CD73 0.5 nM, AMP 50 μM, 30 minutes at room temperature, Malachite Green, absorbance at 630 nm; read-out: Assay 1 CD73 IC50
T1 construct: purchased R&D Systems 5795-EN-010
T1 sequence (P21589 27-547 limits assumed): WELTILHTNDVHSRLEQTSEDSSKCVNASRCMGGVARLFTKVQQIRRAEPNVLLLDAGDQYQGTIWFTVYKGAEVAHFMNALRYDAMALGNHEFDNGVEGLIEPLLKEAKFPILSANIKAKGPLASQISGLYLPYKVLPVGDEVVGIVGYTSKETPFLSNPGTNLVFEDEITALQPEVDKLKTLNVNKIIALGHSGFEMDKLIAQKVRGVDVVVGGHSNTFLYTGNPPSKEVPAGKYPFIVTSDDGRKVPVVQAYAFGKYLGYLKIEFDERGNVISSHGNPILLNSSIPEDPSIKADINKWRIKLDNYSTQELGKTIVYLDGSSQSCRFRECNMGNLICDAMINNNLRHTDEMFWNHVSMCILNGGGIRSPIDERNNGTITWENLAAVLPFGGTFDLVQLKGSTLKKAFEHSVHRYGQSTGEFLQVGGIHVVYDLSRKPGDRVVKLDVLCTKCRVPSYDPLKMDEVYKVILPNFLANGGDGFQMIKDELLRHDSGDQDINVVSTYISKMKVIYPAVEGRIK
Protocol: Serial dilutions of test compounds were incubated with recombinant CD73 and AMP in reaction buffer (25 mM Tris HCl pH7.5, 5 mM MgCl2, 50 mM NaCl, 0.25 mM DTT, 0.005% Triton X-100). The final reaction volume was 25 μL and the final concentrations of recombinant CD73 and AMP were 0.5 nM and 50 μM, respectively. […] After 5 minutes at room temperature, absorbance at 630 nm was determined on a microplate spectrophotometer. The concentration of inorganic phosphate was determined using a phosphate standard curve.
ND indicates not determined.

Row | SMILES | IC50
1 | Nc1nc(Cl)nc2c1ncn2[C@@H]1O[C@H](COC(C(=O)O)c2cscn2)[C@@H](O)[C@@H]1F (mixture of isomers) [Example 14, 2-(((2R3R,4S,5R)-5-(6-amino-2-chloro-9H-purin-9-yl)-4-fluoro-3-hydroxytetrahydrofuran-2-yl)methoxy)-2-(thiazol-4-yl)acetic acid] | 22100 nM
2 | Nc1nc(Cl)nc2c1ncn2[C@@H]1O[C@H](COC(Cc2cccc(C(=O)O)c2)(C(=O)O)c2cscn2)[C@@H](O)[C@@H]1F (mixture of isomers) [Example 17, 3-(2-(((2R,3R,4S,5R)-5-(6-amino-2-chloro-9H-purin-9-yl)-4-fluoro-3-hydroxytetrahydrofuran-2-yl)methoxy)-2-carboxy-2-(thiazol-4-yl)ethyl)benzoic acid] | 740 nM
3 | CCCCOc1nc(Cl)nc2c1ncn2[C@@H]1O[C@H](COC(Cc2ccccc2)(C(=O)O)c2cscn2)[C@@H](O)[C@@H]1F (mixture of isomers) [Example 23, 2-(((2R,3R,4S,5R)-5-(6-butoxy-2-chloro-9H-purin-9-yl)-4-fluoro-3-hydroxytetrahydrofuran-2-yl)methoxy)-3-phenyl-2-(thiazol-4-yl)propanoic acid] | 3420 nM
4 | CCCNc1nc(Cl)nc2c1ncn2[C@@H]1O[C@H](COC(Cc2ccccc2)(C(=O)O)c2cscn2)[C@@H](O)[C@@H]1F (mixture of isomers) [Example 24, 2-(((2R,3R4S,5R)-5-(2-chloro-6-(propylamino)-9H-purin-9-yl)-4-fluoro-3-hydroxytetrahydrofuran-2-yl)methoxy)-3-phenyl-2-(thiazol-4-yl)propanoic acid] | 1240 nM
5 | Nc1nc(Cl)nc2c1ncn2[C@@H]1O[C@H](COC(Cc2ccccc2)(C(=O)O)c2cc[nH]n2)[C@@H](O)[C@H]1O (mixture of isomers) [Example 32, 2-(((2R,3S,4R,5R)-5-(6-amino-2-chloro-9H-purin-9-yl)-3,4-dihydroxytetrahydrofuran-2-yl)methoxy)-3-phenyl-2-(1H-pyrazol-3-yl)propanoic acid] | 2060 nM
6 | Cc1cc(C(Cc2ccccc2)(OC[C@H]2O[C@@H](n3cnc4c(N)nc(Cl)nc43)[C@H](O)[C@@H]2O)C(=O)O)no1 (mixture of isomers) [Example 37, 2-(((2R,3S,4R,5R)-5-(6-amino-2-chloro-9H-purin-9-yl)-3,4-dihydroxytetrahydrofuran-2-yl)methoxy)-2-(5-methylisoxazol-3-yl)-3-phenylpropanoic acid] | 8730 nM
7 | CCN(CC)C(=O)c1ccccc1-c1ccc(CC(OC[C@H]2O[C@@H](n3cnc4c(N)nc(Cl)nc43)[C@H](O)[C@@H]2O)(C(=O)O)c2cscn2)cc1 (mixture of isomers) [Example 45, 2-(((2R,3S,4R,5R)-5-(6-amino-2-chloro-9H-purin-9-yl)-3,4-dihydroxytetrahydrofuran-2-yl)methoxy)-3-(2′-(diethylcarbamoyl)-[1,1′-biphenyl]-4-yl)-2-(thiazol-4-yl)propanoic acid] | 833 nM
8 | Nc1nc(Cl)nc2c1ncn2[C@@H]1O[C@H](COC(Cc2ccc(-c3ccccc3C(=O)O)cc2)(C(=O)O)c2ccsc2)[C@@H](O)[C@H]1O (mixture of isomers) [Example 49, 4′-(2-(((2R,3S,4R,5R)-5-(6-amino-2-chloro-9H-purin-9-yl)-3,4-dihydroxytetrahydrofuran-2-yl)methoxy)-2-carboxy-2-(thiophen-3-yl)ethyl)-[1,1′-biphenyl]-2-carboxylic acid] | 2270 nM
9 | Nc1nc(Cl)nc2c1ncn2[C@@H]1O[C@H](CO[C@@](Cc2ccc(-c3ccc(C(=O)O)cc3)cc2)(C(=O)O)c2cscn2)[C@@H](O)[C@H]1O (single isomer, unassigned) [Example 3] | 1250 nM
10 | N#CCc1ccccc1-c1ccc(C[C@](OC[C@H]2O[C@@H](n3cnc4c(N)nc(Cl)nc43)[C@H](O)[C@@H]2O)(C(=O)O)c2cscn2)cc1 (single isomer, unassigned) [Example 5] | 502 nM
11 | Nc1nc(Cl)nc2c1ncn2[C@@H]1O[C@H](CO[C@@](Cc2ccc(-c3ccccc3CC(=O)O)cc2)(C(=O)O)c2cscn2)[C@@H](O)[C@H]1O (single isomer, unassigned) [Example 7] | 1030 nM

These reach a lower IC50. Values come first.

Row | IC50 | SMILES
12 | 99 nM | Nc1nc(Cl)nc2c1ncn2[C@@H]1O[C@H](COC(Cc2ccc(-c3ccccc3)cc2)(C(=O)O)c2cscn2)[C@@H](O)[C@H]1O (mixture of isomers) [Example 1, 3-([1,1′-biphenyl]-4-yl)-2-(((2R,3S,4R,5R)-5-(6-amino-2-chloro-9H-purin-9-yl)-3,4-dihydroxytetrahydrofuran-2-yl)methoxy)-2-(thiazol-4-yl)propanoic acid]
13 | 433 nM | N#Cc1ccccc1-c1ccc(CC(OC[C@H]2O[C@@H](n3cnc4c(N)nc(Cl)nc43)[C@@H](F)[C@@H]2O)(C(=O)O)c2cscn2)cc1 (mixture of isomers) [Example 12, 2-(((2R3R,4S,5R)-5-(6-amino-2-chloro-9H-purin-9-yl)-4-fluoro-3-hydroxytetrahydrofuran-2-yl)methoxy)-3-(2′-cyano-[1,1′-biphenyl]-4-yl)-2-(thiazol-4-yl)propanoic acid]
14 | 218 nM | Nc1nc(Cl)nc2c1ncn2[C@@H]1O[C@H](COC(Cc2ccc(-c3ccccc3C(=O)O)cc2)(C(=O)O)c2cscn2)[C@@H](O)[C@@H]1F (mixture of isomers) [Example 13, 4′-(2-(((2R,3R,4S,5R)-5-(6-amino-2-chloro-9H-purin-9-yl)-4-fluoro-3-hydroxytetrahydrofuran-2-yl)methoxy)-2-carboxy-2-(thiazol-4-yl)ethyl)-[1,1′-biphenyl]-2-carboxylic acid]
15 | 182 nM | Nc1nc(Cl)nc2c1ncn2[C@@H]1O[C@H](COC(Cc2ccc(-c3ccccc3CC(=O)O)cc2)(C(=O)O)c2cscn2)[C@@H](O)[C@@H]1F (mixture of isomers) [Example 18, 2-(((2R3R,4S,5R)-5-(6-amino-2-chloro-9H-purin-9-yl)-4-fluoro-3-hydroxytetrahydrofuran-2-yl)methoxy)-3-(2′-(carboxymethyl)-[1,1′-biphenyl]-4-yl)-2-(thiazol-4-yl)propanoic acid]
16 | 382 nM | CCCNc1nc(Cl)nc2c1ncn2[C@@H]1O[C@H](COC(Cc2ccc(-c3ccccc3C(=O)O)cc2)(C(=O)O)c2cscn2)[C@@H](O)[C@@H]1F (mixture of isomers) [Example 25, 4′-(2-carboxy-2-(((2R,3R,4S,5R)-5-(2-chloro-6-(propylamino)-9H-purin-9-yl)-4-fluoro-3-hydroxytetrahydrofuran-2-yl)methoxy)-2-(thiazol-4-yl)ethyl)-[1,1′-biphenyl]-2-carboxylic acid]
17 | 400 nM | Nc1nc(Cl)nc2c1ncn2[C@@H]1O[C@H](COC(Cc2ccccc2)(C(=O)O)c2cscn2)[C@@H](O)[C@H]1O (mixture of isomers) [Example 26, 2-(((2R,3S,4R,5R)-5-(6-amino-2-chloro-9H-purin-9-yl)-3,4-dihydroxytetrahydrofuran-2-yl)methoxy)-3-phenyl-2-(thiazol-4-yl)propanoic acid]
18 | 106 nM | Nc1nc(Cl)nc2c1ncn2[C@@H]1O[C@H](COC(Cc2ccc(-c3ccccc3)cc2)(C(=O)O)c2csc(Cl)n2)[C@@H](O)[C@H]1O (mixture of isomers) [Example 27, 3-([1,1′-biphenyl]-4-yl)-2-(((2R,3S,4R,5R)-5-(6-amino-2-chloro-9H-purin-9-yl)-3,4-dihydroxytetrahydrofuran-2-yl)methoxy)-2-(2-chlorothiazol-4-yl)propanoic acid]
19 | 42 nM | CNS(=O)(=O)c1ccccc1-c1ccc(CC(OC[C@H]2O[C@@H](n3cnc4c(N)nc(Cl)nc43)[C@H](O)[C@@H]2O)(C(=O)O)c2cscn2)cc1 (mixture of isomers) [Example 38, 2-(((2R,3S,4R,5R)-5-(6-amino-2-chloro-9H-purin-9-yl)-3,4-dihydroxytetrahydrofuran-2-yl)methoxy)-3-(2′-(N-methylsulfamoyl)-[1,1′-biphenyl]-4-yl)-2-(thiazol-4-yl)propanoic acid]
20 | 64 nM | Nc1nc(Cl)nc2c1ncn2[C@@H]1O[C@H](CO[C@](Cc2ccc(-c3ccc(C(=O)O)cc3)cc2)(C(=O)O)c2cscn2)[C@@H](O)[C@H]1O (single isomer, unassigned) [Example 2]
21 | 35 nM | N#CCc1ccccc1-c1ccc(C[C@@](OC[C@H]2O[C@@H](n3cnc4c(N)nc(Cl)nc43)[C@H](O)[C@@H]2O)(C(=O)O)c2cscn2)cc1 (single isomer, unassigned) [Example 4]
22 | 39 nM | Nc1nc(Cl)nc2c1ncn2[C@@H]1O[C@H](CO[C@](Cc2ccc(-c3ccccc3CC(=O)O)cc2)(C(=O)O)c2cscn2)[C@@H](O)[C@H]1O (single isomer, unassigned) [Example 6]
23 | 241 nM | Nc1nc(Cl)nc2c1ncn2[C@@H]1O[C@H](CO[C@](Cc2ccc(-c3ccccc3)cc2)(C(=O)O)c2cscn2)[C@@H](O)[C@@H]1F (single isomer, unassigned) [Example 8]
